In patent US8465960B2 (priority 2007, dated 2013):

What was measured:
[1] = biological target: influenza B virus NA with Asp198Asn mutation (Influenza B virus, UniProt P27907, D196N)
[2] = biological target: influenza B virus NA with Ile222Thr mutation (UniProt P03474, I221T, species not given)
[3] = test system: influenza B virus NA with Gly402Ser mutation; type: biochemical
[4] = biological target: influenza B virus NA with Ser250Gly mutation (Influenza B virus, UniProt P27907, S248G); type: biochemical

Compound: CCOC(=O)C1=C[C@@H](OC(CC)CC)[C@H](NC(C)=O)[C@@H](N)C1 [oseltamivir]
- reduction in drug sensitivity compared with median IC50 of type B viruses [1]: 3-4 fold
- reduction in sensitivity compared with median IC50 of type B viruses [2]: 6-7 fold
- increase of IC50 of posttreatment isolate compared to virus isolated before treatment [3]: 3.9 fold
- effect of mutation on sensitivity [4]: did not reduce sensitivity
